Data on five molecules can be found in patent publication US20240066155A1, “DUAL MODE RADIOTRACER AND -THERAPEUTICS” (priority 2021, published 2024).

Each structure is given as a SMILES string. “And” between values parts separate entries of the source, which are not always exact repeats. Equal values may be shown once.

One data set deals with T1, PSMA (Homo sapiens, UniProt Q04609).
T1 construct: endogenous in cells; host or cells: LNCaP cells
The data set is described as follows: Competitive binding studies on LNCaP cells vs ([125I]BA)KuE (affinity, IC50). Particulars: 1 h, 4° C., natLu complexes. The protocol:
(§1) Competitive binding studies were determined on LNCaP cells (1.5×10^5 cells in 1 mL/well) after incubation at 4° C. for 1 h, using (((S)-1-carboxy-5-(4-([^125I]iodo)benzamido)pentyl)carbamoyl)-L-glutamic acid ([^125I]BA)KuE; 0.2 nM/well) as reference radioligand (n=3). Internalization studies of the radiolabeled ligands (1.0 nM/well) were performed on LNCaP cells (1.25×10^5 cells in 1 mL/well) at 37° C. for 1 h and accompanied by ([^125I]BA)KuE (0.2 nM/well), as reference. Data were corrected for non-specific binding and normalized to the specific internalization observed for the reference (n=3). A detailed description of the experimental procedures was previously published (Wurzer A, et al. J Nucl Med. 2020; 61: 735-742).

A further data set deals with LNCaP cells. The data set is described as follows: PSMA-mediated internalization into LNCaP cells. The format is cell-based. Particulars: 1 h, 37° C., percentage of reference ligand ([125I]BA)KuE, n=3. The protocol:
as §1

Data set [1] in a line: Lipophilicity, n-octanol/PBS (pH 7.4) distribution. In kind it is physicochemical. The note with it: n-octanol/PBS pH 7.4, 177Lu-labeled, n=6. The protocol:
Approximately 1 MBq of the ^177Lu-labeled PSMA ligand was dissolved in 1 mL of a 1:1 mixture (v/v) of phosphate-buffered saline (PBS, pH 7.4) and n-octanol (n=6). After vigorous mixing of the suspension for 3 min, the vial was centrifuged at 15000×g for 3 min and 100 μL aliquots of both layers were measured in a γ-counter. Finally, the ratio of the radioactivity detected in the n-octanol sample and the PBS buffer was calculated and expressed as distribution ratio log D7.4.

In a further data set the target is T2, human serum albumin (Homo sapiens, UniProt P02768).
T2 construct: purchased Biowest, Nuaillé, France
T2 sequence (P02768 25-609): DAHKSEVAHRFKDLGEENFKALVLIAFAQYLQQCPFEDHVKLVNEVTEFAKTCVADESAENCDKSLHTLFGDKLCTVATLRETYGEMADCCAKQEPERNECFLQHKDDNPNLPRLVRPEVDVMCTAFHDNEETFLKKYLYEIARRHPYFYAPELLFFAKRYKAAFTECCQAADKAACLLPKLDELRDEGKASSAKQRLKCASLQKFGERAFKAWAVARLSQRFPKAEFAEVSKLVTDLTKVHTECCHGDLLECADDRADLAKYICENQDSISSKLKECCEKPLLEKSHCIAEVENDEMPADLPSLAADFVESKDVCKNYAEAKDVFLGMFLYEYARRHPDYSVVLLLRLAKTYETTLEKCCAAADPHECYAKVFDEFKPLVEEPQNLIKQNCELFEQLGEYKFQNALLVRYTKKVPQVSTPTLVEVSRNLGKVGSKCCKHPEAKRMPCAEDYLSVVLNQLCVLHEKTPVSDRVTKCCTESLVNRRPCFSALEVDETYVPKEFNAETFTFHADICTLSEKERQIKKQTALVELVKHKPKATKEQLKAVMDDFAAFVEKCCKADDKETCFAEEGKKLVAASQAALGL
The data set is described as follows: Binding to human serum albumin by albumin mediated size exclusion chromatography (AMSEC). In kind it is in vitro ADME. Particulars: size exclusion chromatography with HSA in the mobile phase, 177Lu-labeled. The protocol: Binding of ^177Lu-labeled ligands to HSA was assessed by albumin mediated size exclusion chromatography (AMSEC). A gel filtration size exclusion column (Superdex 75 Increase 10/300 GL, GE Healthcare, Uppsala, Sweden) was used with HSA buffer at physiological concentration (700 μM, Biowest, Nuaillé, France) as mobile phase (constant flow rate of 0.8 mL/min at room temperature). For calibration purposes, a commercially available set of proteins (GE Healthcare, Buckinghamshire, UK) was used. Under these chromatographic conditions, the retention time of a radioligand (1.0 MBq, 10-20 GBq/μmol) depends on the extent of HSA/ligand interactions and thus, by means of the calibration with the aforementioned set of proteins, can be translated into an AMW (expressed in kDa) as a parameter allowing to quantify the extent of HSA binding. The detection window ranges between 2.3 kDa ([^18F]Fluoride; no HSA interaction) and 70.2 kDa (experimental molecular weight of HSA; maximum HSA interaction).
In general terms: In gel filtration, larger molecules generally elute earlier.

Data set [2] concerns LNCaP tumor-bearing male CB-17 SCID mice. The data set is described as follows: Ex vivo biodistribution in LNCaP tumor-bearing CB-17 SCID mice. Particulars: 24 h p.i. The protocol:
All animal experiments were conducted in accordance with general animal welfare regulations in Germany (German animal protection act, as amended on 18 May 2018, Art. 141 G v. 29 Mar. 2017 I 626, approval no. 55.2-1-54-2532-71-13) and the institutional guidelines for the care and use of animals. LNCaP tumor xenografts were established in 6-8 weeks old male CB-17 SCID mice as described previously (Wurzer A, et al. J Nucl Med. 2020; 61: 735-742). Biodistribution Studies. The ^177Ludabeled PSMA inhibitors (2-5 MBq; 0.1 nmol) were injected under isoflurane anesthesia into the tail vein of LNCaP tumor-bearing male CB-17 SCID mice that were sacrificed 24 h post injection (p.i.) (n=4-5). Selected organs were removed, weighed, and measured in a counter. All rhPSMA ligands were evaluated in mice during the same time period (Q1/2020), whereas ^177Ludabeled PSMA-617 and PSMA I&T (Wirtz M, et al. EJNMMI Res. 2018; 8: 84) were assessed previously using the identical cell line, mouse model and experimental procedure.

Usually IC50 stands for the concentration needed to halve the response being measured. A low value points to inhibition by little substance.

T1 sequence (Q04609 whole entry): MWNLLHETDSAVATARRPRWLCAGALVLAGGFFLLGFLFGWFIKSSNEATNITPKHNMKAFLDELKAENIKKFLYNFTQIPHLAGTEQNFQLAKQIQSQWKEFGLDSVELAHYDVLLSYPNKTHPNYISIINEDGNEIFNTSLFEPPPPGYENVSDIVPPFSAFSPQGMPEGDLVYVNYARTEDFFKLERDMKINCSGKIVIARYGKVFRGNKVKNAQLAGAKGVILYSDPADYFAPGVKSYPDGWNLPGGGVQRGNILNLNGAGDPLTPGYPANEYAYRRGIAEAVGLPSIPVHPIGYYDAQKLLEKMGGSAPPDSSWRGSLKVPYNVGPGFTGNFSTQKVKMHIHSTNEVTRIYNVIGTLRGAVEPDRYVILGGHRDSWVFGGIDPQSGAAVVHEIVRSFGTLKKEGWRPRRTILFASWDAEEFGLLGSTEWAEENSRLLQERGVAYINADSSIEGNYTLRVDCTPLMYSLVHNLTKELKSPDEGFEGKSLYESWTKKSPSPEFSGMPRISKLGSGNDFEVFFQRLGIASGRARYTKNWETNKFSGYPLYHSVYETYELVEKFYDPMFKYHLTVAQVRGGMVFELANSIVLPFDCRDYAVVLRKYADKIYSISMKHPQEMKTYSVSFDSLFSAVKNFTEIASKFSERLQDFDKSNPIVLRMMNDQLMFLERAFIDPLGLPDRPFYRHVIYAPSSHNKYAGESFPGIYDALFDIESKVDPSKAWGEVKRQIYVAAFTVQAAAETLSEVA

The molecule `CC(C)(C)[Si](F)(c1ccc(C(=O)NC[C@@H](NC(=O)CC[C@H](C(=O)O)N2CCN(CC(=O)[O-])CCN(CC(=O)[O-])CCN(CC(=O)[O-])CC2)C(=O)N[C@H](CCCCNC(=O)CCC(=O)NCCC[C@@H](NC(=O)CC[C@H](NC(=O)N[C@@H](CCC(=O)O)C(=O)O)C(=O)O)C(=O)O)C(=O)O)cc1)C(C)(C)C.[Lu+3]` [[^177Lu, ^19F]rhPSMA-7.1] came in with an IC50 on PSMA (n=3) of 3.11 ± 0.64 nM. Besides, the “Internalization [% IBA-KuE]” value in the data set on LNCaP cells is 137±6 % IBA-KuE and 137.4 ± 5.8 % IBA-KuE. The logD7.4 in data set [1] was −4.27 ± 0.24. Besides, the “MWapp [kDa] (apparent molecular weight, AMW; HSA binding)” value (“MWapp [kDa]” for short) at human serum albumin came out at 26.3 kDa.

`CC(C)(C)[Si](F)(c1ccc(C(=O)NC[C@H](NC(=O)CC[C@H](C(=O)O)N2CCN(CC(=O)[O-])CCN(CC(=O)[O-])CCN(CC(=O)[O-])CC2)C(=O)N[C@H](CCCCNC(=O)CCC(=O)NCCC[C@@H](NC(=O)CC[C@H](NC(=O)N[C@@H](CCC(=O)O)C(=O)O)C(=O)O)C(=O)O)C(=O)O)cc1)C(C)(C)C.[Lu+3]` [[^177Lu, ^19F]rhPSMA-7.2]: at PSMA (n=3), the IC50 amounted to 2.88 ± 1.06 nM. Also, the “Internalization [% IBA-KuE]” value with LNCaP cells was 197.3 ± 15.0 % IBA-KuE. The molecule also returned a logD7.4 in data set [1] of −4.25 ± 0.29. In addition, the “MWapp [kDa]” value at human serum albumin was 31.7 kDa.

Regarding `CC(C)(C)[Si](F)(c1ccc(C(=O)NC[C@@H](NC(=O)CC[C@@H](C(=O)O)N2CCN(CC(=O)[O-])CCN(CC(=O)[O-])CCN(CC(=O)[O-])CC2)C(=O)N[C@H](CCCCNC(=O)CCC(=O)NCCC[C@@H](NC(=O)CC[C@H](NC(=O)N[C@@H](CCC(=O)O)C(=O)O)C(=O)O)C(=O)O)C(=O)O)cc1)C(C)(C)C.[Lu+3]` [[^177Lu, ^19F]rhPSMA-7.3], on PSMA (n=3), the 50% inhibitory concentration (IC50) was determined as 3.29 ± 1 nM. Also, the “Internalization [% IBA-KuE]” value in the data set on LNCaP cells is 184.4 ± 11.8 % IBA-KuE. In addition, the logD7.4 in data set [1] was −4.12 ± 0.11. Besides, the “MWapp [kDa]” value on human serum albumin was 30.4 kDa. Besides, in data set [2] (n=5, mean of ratios per mouse), the Tumor-to-organ ratio adrenals is recorded as 44.34, the Tumor-to-organ ratio blood stood at 4255, the Tumor-to-organ ratio bone is recorded as 625.98 and the Tumor-to-organ ratio heart was 542.49. In data set [2] (n=5, mean of ratios per mouse), the Tumor-to-organ ratio intestine is on record as 254.02, the Tumor-to-organ ratio kidney was determined as 1.64, the Tumor-to-organ ratio liver was found to be 78.11 and the Tumor-to-organ ratio lung is reported as 239.97. Moreover, in data set [2] (n=5, mean of ratios per mouse), the Tumor-to-organ ratio muscle was 2123.58, the Tumor-to-organ ratio pancreas is 754.34, the “Tumor-to-organ ratio parotid gl.” value amounted to 176.66 and the Tumor-to-organ ratio spleen was 34.32. Moreover, in data set [2] (n=5, mean of ratios per mouse), the Tumor-to-organ ratio stomach was 453.70 and the “Tumor-to-organ ratio submand. gl.” value came out at 290.08. In addition, in data set [2] (n=5, mean of ratios per mouse, listed as [^177Lu]rhPSMA-7.3), the Tumor-to-organ ratio blood was determined as 4255.56. In data set [2] (n=5, mean, complete dataset), the Activity accumulation adrenals was found to be 0.4233 % ID/g, the Activity accumulation blood is given as 0.0046 % ID/g, the Activity accumulation bone is listed as 0.0307 % ID/g and the Activity accumulation heart was found to be 0.0333 % ID/g. In data set [2] (n=5, mean, complete dataset), this molecule registered an Activity accumulation intestine of 0.1001 % ID/g, an Activity accumulation kidney of 11.4±1.4 % ID/g, an Activity accumulation liver of 0.2352 % ID/g and an Activity accumulation lung of 0.0768 % ID/g. Further, in data set [2] (n=5, mean, complete dataset), the Activity accumulation muscle is 0.0094 % ID/g, the Activity accumulation pancreas was found to be 0.0241 % ID/g, the “Activity accumulation parotid gl.” value came out at 0.1068 % ID/g and the Activity accumulation spleen is given as 0.5817 % ID/g. Besides, in data set [2] (n=5, mean, complete dataset), the Activity accumulation stomach stood at 0.0434 % ID/g and the “Activity accumulation submand. gl.” value was determined as 0.0644 % ID/g. This molecule registered an Activity accumulation tumor in data set [2] (n=5, mean, complete dataset, LNCaP tumor) of 18.1740 % ID/g. Besides, in data set [2] (n=5, mean, complete dataset, listed as [^177Lu]rhPSMA-7.3), the Activity accumulation kidney was determined as 11.3738 % ID/g.

With `CC(C)(C)[Si](F)(c1ccc(C(=O)NC[C@H](NC(=O)CC[C@@H](C(=O)O)N2CCN(CC(=O)[O-])CCN(CC(=O)[O-])CCN(CC(=O)[O-])CC2)C(=O)N[C@H](CCCCNC(=O)CCC(=O)NCCC[C@@H](NC(=O)CC[C@H](NC(=O)N[C@@H](CCC(=O)O)C(=O)O)C(=O)O)C(=O)O)C(=O)O)cc1)C(C)(C)C.[Lu+3]` [[^177Lu, ^19F]rhPSMA-7.4], on PSMA (n=3), the 50% inhibitory concentration (IC50) was 3.06 ± 1.51 nM. In addition, the “Internalization [% IBA-KuE]” value in the data set on LNCaP cells is listed as 190.4 ± 10.5 % IBA-KuE. Further, the logD7.4 in data set [1] is recorded as −4.10 ± 0.14. Besides, the “MWapp [kDa]” value at human serum albumin came out at 35.7 kDa.

In the case of `O=C([O-])CN1CCN(CC(=O)[O-])CCN(CC(=O)NCC2CCC(C(=O)N[C@@H](Cc3ccc4ccccc4c3)C(=O)NCCCC[C@H](NC(=O)N[C@@H](CCC(=O)O)C(=O)O)C(=O)O)CC2)CCN(CC(=O)[O-])CC1.[177Lu+3]` (stereo partly shown) [[^177Lu]PSMA-617], the 50% inhibitory concentration (IC50) on PSMA (n=3) was 3.27 ± 0.19 nM; at PSMA (n=3, listed as [^natLu]PSMA-617), 3.3 ± 0.2 nM. Besides, in the data set on LNCaP cells, the “Internalization [% IBA-KuE]” value was 203±10 % IBA-KuE and 203.2 ± 10.1 % IBA-KuE. The same molecule returned a logD7.4 in data set [1] of −4.1 ± 0.1. Further, at human serum albumin, the “MWapp [kDa]” value is reported as 13.7 kDa.
